17 compounds from ChEMBL document CHEMBL1130732, “Homologated aza analogs of arabinose as antimycobacterial agents” (1998) can be followed below.

Values after ≈ are worked out from the molar mass of the structure shown. Active and inactive are the calls of the source. No cut-off for these calls is given here.

In test [1] the test system is Mycobacterium tuberculosis. Briefly: Minimum inhibitory concentration against Mycobacterium tuberculosis H37Ra; partial inhibition at 128 ug/mL. The format is functional.
The test system of test [2] is Mycobacterium tuberculosis. The test can be described thus: Percent inhibition of compound against Mycobacterium tuberculosis H37Ra at 12.5 ug/mL concentration in BACTEC assay. The format is functional.
For test [3], the system named is Mycobacterium tuberculosis. The test can be described thus: Minimum inhibitory concentration against Mycobacterium tuberculosis H37Ra; value ranges from 16-64 ug/mL. The format is functional.
In test [4] the test system is Mycobacterium tuberculosis. Briefly: Minimum bactericidal concentration against Mycobacterium tuberculosis H37Ra; value ranges from 64->128 ug/mL. The format is functional.
Test [5] concerns Mycobacterium tuberculosis. Briefly: Minimum inhibitory concentration against Mycobacterium tuberculosis H37Ra. The format is functional.
Test [6] has as its system Mycobacterium avium. The test can be described thus: Anti-MAC activity against Mycobacterium avium macrophage was determined. The format is functional.
In test [7] the test system is Mycobacterium tuberculosis. Briefly: Minimum inhibitory concentration against Mycobacterium tuberculosis H37Ra; value ranges from >12.8-<=128 ug/mL. The format is functional.
The test system of test [8] is Mycobacterium avium. Briefly: Anti-MAC activity against Mycobacterium avium macrophage; cytotoxic to macrophages. The format is functional, organism-based.
Test [9] concerns Mycobacterium tuberculosis. Briefly: Minimum inhibitory concentration against Mycobacterium tuberculosis H37Ra; value ranges from […] ug/mL. The format is functional.
Test [10] concerns Mycobacterium tuberculosis. The test can be described thus: Minimum inhibitory concentration against Mycobacterium tuberculosis H37Ra; value ranges from 16-32 ug/mL. The format is functional.
For test [11], the system named is Mycobacterium tuberculosis. The test can be described thus: Minimum inhibitory concentration against Mycobacterium tuberculosis H37Ra; […]. The format is functional.
In test [12] the test system is Mycobacterium tuberculosis. The test can be described thus: Minimum bactericidal concentration against Mycobacterium tuberculosis H37Ra. The format is functional.
Test [13] deals with Mycobacterium tuberculosis. Briefly: Minimum inhibitory concentration against Mycobacterium tuberculosis H37Ra; value ranges from 32-128 ug/mL. The format is functional.
In test [14] the test system is Mycobacterium avium. The test can be described thus: Anti-MAC activity against Mycobacterium avium macrophage; I means inactive in macrophages. The format is functional, organism-based.

As a reminder, the MIC is the least concentration at which growth counts as inhibited. Lower therefore signals inhibition by little substance. The term inhibition denotes the share of the control response that was lost under treatment. Low values mean a weak effect, high ones a strong effect. For orientation: MBC means the lowest tested concentration that kills the bacteria rather than only halting them.

As to `OCC1NC(CSc2ccc3ccccc3c2)C(O)C1O` (stereo not given), the MIC in test [1] was > 128 µg/mL. The compound further came in with an inhibition at 12.5 µg/mL in [2] of 18%.

The compound `CCCCCCCCCCCCCCCCSCC1NC(CO)C(O)C1O` (stereo not given) came in with an MIC in test [3] of 16 µg/mL (≈ 39.6 µM). Moreover, the MBC in test [4] turned out to be 64 µg/mL (≈ 159 µM).

With `OCC1NC(CSc2ccccc2)C(O)C1O` (stereo not given), the MIC in test [5] is > 128 µg/mL. Besides, the Activity in test [6] came to 4 µg/mL. This compound had an inhibition at 12.5 µg/mL in [2] of 0%.

For the compound `CCCCCCCCCCCCS(=O)(=O)C[C@H]1NC(CO)C(O)C1O` (stereo not given in full), the MIC in [7] is > 12.8 µg/mL.

Consider `CC(C)=CCC/C(C)=C\CSCC1NC(CO)C(O)C1O` (stereo not given), for which the Activity result in [8] is given as “Cytotoxic”. In test [9], the lowest concentration to inhibit growth (MIC) was 64 µg/mL (≈ 203 µM).

For the compound `N#Cc1ccc(SCC2NC(CO)C(O)C2O)cc1` (stereo not given), the minimal inhibitory concentration (MIC) in test [5] is > 128 µg/mL. The compound further registered an inhibition at 12.5 µg/mL in test [2] of 5%.

As for `OCC1NC(CSCc2ccccc2)C(O)C1O` (stereo not given), the minimum inhibitory concentration (MIC) in test [5] is > 128 µg/mL.

In the case of `CCCCCCCCCCCCSCC1NC(CO)C(O)C1O` (stereo not given), the Activity entry in test [8] is listed as “Cytotoxic”. 16 µg/mL (≈ 46 µM) was the least that counted as inhibitory in [10] (MIC). The same compound gave an MBC in test [4] of 64 µg/mL (≈ 184 µM).

With `COc1ccccc1SCC1NC(CO)C(O)C1O` (stereo not given), in [5], the MIC is > 128 µg/mL.

`CCCCCCCCCCCC[S+]([O-])CC1NC(CO)C(O)C1O` (stereo not given) displayed an MIC in [11] of 32 µg/mL (≈ 88 µM). In addition, in test [12], the MBC was ≥ 128 µg/mL.

Turning to `CCCCCCCCCCSCC1NC(CO)C(O)C1O` (stereo not given), in test [12], the MBC is ≥ 128 µg/mL. Moreover, inhibition of growth in test [13] (MIC) required 32 µg/mL (≈ 100 µM).

On to `[O-][S+](CC1NC(CO)C(O)C1O)c1ccccc1` (stereo not given), for which, in [14], the outcome was inactive. Moreover, the MIC in test [5] is > 128 µg/mL. In test [2], this compound came in with an inhibition at 12.5 µg/mL of 18%.

Take `OC[C@H]1O[C@@H](CSc2ccccc2)[C@H](O)[C@@H]1O`: in [5], the MIC is > 128 µg/mL. Also, in [6], the Activity is >64 µg/mL.

`CCCCCCCCCCCCS(=O)(=O)CC1NC(CO)C(O)C1O` (stereo not given): in [8], the Activity entry is “Cytotoxic”. The MBC in [12] is ≥ 128 µg/mL. This compound had an MIC in test [13] of 32 µg/mL (≈ 84.3 µM).

`COc1ccc(SCC2NC(CO)C(O)C2O)cc1` (stereo not given): the MIC in test [5] was > 128 µg/mL.

`OCC1NC(CSc2ccncc2)C(O)C1O` (stereo not given): the MIC in [5] is > 128 µg/mL. The compound further returned an inhibition at 12.5 µg/mL in test [2] of 6%.

Regarding `O=S(=O)(CC1NC(CO)C(O)C1O)c1ccccc1` (stereo not given), the result in test [14] was inactive. In test [5], the minimal inhibitory concentration (MIC) was > 128 µg/mL. The same compound returned an inhibition at 12.5 µg/mL in test [2] of 6%.
